Experimental data taken from USRE47193E1, “Selectively substituted quinoline compounds” (EISAI R&D MANAGEMENT CO., LTD., priority 2013, dated 2019).
pIC50: −log10 of the molar value. Like-named read-outs stand apart in the source and are kept apart here.

What was measured:
Human TLR7/8 = test: Human PBMC cell-based assay, TLR7/8 stimulus (RNA-Ig), cytokine ELISA
Outline: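 Healthy-donor human PBMC, 2×10^5 cells/well (1×10^5 in later assay), pre-treated 30 min with compound (0.1% DMSO). Stimulated 20 h at 37 °C with RNA-Ig: 26-mer U1 snRNA stem loop IV phosphorothioate RNA at 2.5 μM plus anti-ssDNA antibody (1:25 or 1 ug/ml). Supernatant cytokines by ELISA.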

Mouse Splenocytes = test: Mouse spleen cell-based assay (R848, IL-6 ELISA); settings: Mus musculus, Splenocyte, BALB/c spleen cells, 370 nM R848
Method: Mouse Spleen cell-based assay. Spleens were harvested from female BALB/c mice (Jackson Labs, Bar Harbor, Me.) euthanized by CO2. A single cell suspension was obtained by passing spleens through a 40 μm an nylon cell strainer. Cells were washed twice with 50 ml PBS (Mediatech, Inc., Manassas, Va.) and red blood cells were lysed in 5 ml RBC Lysis buffer (eBioscience, Inc., San Diego, Calif.) for 5 minutes at room temperature. Cells were washed twice more in PBS and finally resuspended in supplemented RPMI-1640 at 2.5×10^6 cells/ml. Cells were plated at 100 μl/well (2.5×10^5 cells/well) in 96-well tissue culture treated plates (Falcon). Serial dilutions of compounds solubilized in 100% DMSO were added in triplicate to cells to yield a final concentration of 0.1% DMSO. Cells were incubated with compound for 30 minutes at 37° C., 5% CO2 before adding 100 μl/well of 740 nM R848 (Resiquimod; GLSynthesis, Worcester, Mass.) in complete media for a final concentration of 370 nM R848. Cells were incubated for 20 hours at 37° C., 5% CO2. Culture supernatants were collected, and levels of IL-6 were assessed by standard ELISA procedure according to the manufacturer's recommended protocol (BD Biosciences, Inc., San Diego, Calif.).

[1] = primary human PBMC assay, TLR7/8 potency, ligand not given, read-out: Human PBMCs IC50

`C[C@@H]1CN(C[C@H]2CN(c3ccc(C#N)c4ncccc34)C[C@@H](C)O2)CCN1` [ER-887269] gave a pIC50 (Human TLR7/8; [1]) of 9.00.
Work on `C[C@@H]1CN(c2ccc(C#N)c3ncccc23)C[C@H](C(=O)NC2CCN(C)CC2)O1` [ER-899464, (2R,6R)-4-(8-cyanoquinolin-5-yl)-6-methyl-N-(1-methylpiperidin-4-yl)morpholine-2-carboxamide] yielded a pIC50 (Human TLR7/8; [1]) of 9.00.
In the case of `CC[C@H]1CN(C[C@H]2CN(c3ccc(C#N)c4ncccc34)C[C@@H](C)O2)CCN1` [ER-890963], the pIC50 (Human TLR7/8; [1]) was 8.70 and the pIC50 (Mouse Splenocytes) was 6.60.
`C[C@@H]1CN(c2ccc(C#N)c3ncccc23)C[C@H](C(=O)N[C@H]2CNC[C@H]2F)O1.Cl` [ER-899742, (2R,6R)-4-(8-cyanoquinolin-5-yl)-N-[(3S,4R)-4-fluoropyrrolidin-3-yl]-6-methylmorpholine-2-carboxamide hydrochloride] was tested, and the pIC50 (Human TLR7/8; Hu PBMC, ligand RNA-Ig, analyte IL-6) was 9.05, the “fold more potent versus HCQ” value (Human TLR7/8; RNA-Ig TLR7/8 stimulus) was “approximately 1000 fold” and the pIC50 (Human TLR7/8; read-out: Human PBMCs IC50, primary human PBMC assay, TLR7/8 potency, ligand not given) was 9.00.
`C[C@@H]1CN(c2ccc(C#N)c3ncccc23)C[C@H](CN2CCN(C)CC2)O1` [ER-887723] showed a pIC50 (Human TLR7/8; [1]) of 8.15 and a pIC50 (Mouse Splenocytes) of 7.33.
`CC1CNC(=O)CN1C[C@H]1CN(c2ccc(C#N)c3ncccc23)C[C@@H](C)O1` (stereo partly shown) [ER-887722] gave a pIC50 (Human TLR7/8; [1]) of 7.19 and a pIC50 (Mouse Splenocytes) of 6.33.
In the case of `CC1CN(c2ccc(C#N)c3ncccc23)CC(CN2CCC(NC(=O)C(C)C)CC2)O1` (stereo not shown) [ER-889745], the pIC50 (Human TLR7/8; [1]) was 7.34 and the pIC50 (Mouse Splenocytes) was 7.05.
In the case of `CC(=O)NC1CCN(CC2CN(c3ccc(C#N)c4ncccc34)CC(C)O2)CC1` (stereo not shown) [ER-888288], the pIC50 (Human TLR7/8; [1]) was 7.82 and the pIC50 (Mouse Splenocytes) was 6.87.
`CCCN1CCN(C[C@H]2CN(c3ccc(C#N)c4ncccc34)C[C@@H](C)O2)CC1` [ER-887724] showed a pIC50 (Human TLR7/8; [1]) of 8.22 and a pIC50 (Mouse Splenocytes) of 7.15.
Work on `C[C@@H]1CN(c2ccc(C#N)c3ncccc23)C[C@H](CNC2CCCC2)O1` [ER-887145] yielded a pIC50 (Human TLR7/8; [1]) of 7.82.
For `C[C@@H]1CN(c2ccc(C#N)c3ncccc23)C[C@H](CN2CCC(O)CC2)O1` [ER-886953], the pIC50 (Human TLR7/8; [1]) was 7.59.
`CC1CN(c2ccc(C#N)c3ncccc23)CC(CN2CCC(N(C)C)CC2)O1` (stereo not shown) [ER-887725] was tested, and the pIC50 (Human TLR7/8; [1]) was 8.70.
`C[C@@H]1CN(c2ccc(C#N)c3ncccc23)C[C@H](CN2CCC(N3CCCCC3)CC2)O1` [ER-887927, 5-((2S,6R)-2-([1,4′-bipiperidin]-1′-ylmethyl)-6-methylmorpholino)quinoline-8-carbonitrile] was tested, and the pIC50 (Mouse Splenocytes) was 7.59.
`C[C@@H]1CN(c2ccc(C#N)c3ncccc23)C[C@H](CN2CCNCC2)O1` [ER-887253] showed a pIC50 (Human TLR7/8; [1]) of 9.00 and a pIC50 (Mouse Splenocytes) of 7.31.
Molecule `C[C@@H]1CN(c2ccc(C#N)c3ncccc23)C[C@H](CN2CC[C@H](O)C2)O1` [ER-886820] has a pIC50 (Human TLR7/8; [1]) of 7.21.
`CCN(CCO)CCCC(C)Nc1ccnc2cc(Cl)ccc12` (stereo not shown) [HCQ, hydroxychloroquine, reference compound] showed a pIC50 (Human TLR7/8; Hu PBMC, ligand RNA-Ig, analyte IL-6, read-out: IC50) of 5.70 to 6.00.
For `C[C@@H]1CN(c2ccc(C#N)c3ncccc23)C[C@H](C)O1` [ER-878952], the pIC50 (Human TLR7/8; [1]) was 6.82 and the pIC50 (Mouse Splenocytes) was 5.79.
Work on `C[C@@H]1CN(c2ccc(C#N)c3ncccc23)C[C@H](CO)O1` [ER-885493, 5-((2R,6R)-2-(hydroxymethyl)-6-methylmorpholino)quinoline-8-carbonitrile] yielded a pIC50 (Human TLR7/8; [1]) of 6.74 and a pIC50 (Mouse Splenocytes) of 6.29.
In the case of `CC1CN(c2ccc(C#N)c3ncccc23)CC(CN2CCN(C)CC2C)O1` (stereo not shown) [ER-889556], the pIC50 (Human TLR7/8; [1]) was 8.00 and the pIC50 (Mouse Splenocytes) was 6.36.
